US7388124B2 (priority 2001, dated 2008)
Several values for one entry are separate records, joined by “and”; a condition that tells them apart may be missing. Equal entries are not always repeated. Entries after “also recorded” stand apart in the source; their conditions may differ. Where two headings read alike, the source gives them in different places.

Assays:
[1] = system: rat pain model variants; experiment: Dynamic mechanical allodynia (camel hair brush) in rat pain model variants; assay type: in vivo, Sprague Dawley rats; conditions: n=12 rats
Description: (§1) The methods of preparation and testing were similar for all the variant pain models described in this example. Male Sprague Dawley rats initially weighing between 150 and 175 grams were housed singly. Baseline behaviors to stimulations of the paw on which the procedure was to be performed were recorded over several sessions after accommodation of 3-4 days, and the results were averaged and used as the baseline control data. The pain behaviors studied were static mechanical allodynia (e.g., light touch stimulation with von Frey fibers 4.56, 4.73, 4.93, and/or 5.07), dynamic mechanical allodynia (e.g., stimulation with moving camel hair brush), and/or mechanical hyperalgesia (e.g., pinprick stimulation).
(§2) After the baseline control data was collected, the specified procedure with a gel was performed near the chosen nerve of each variant group (see Tables 2-6 and 8-10), then the rats were tested post procedurally and intermittently for up to 77 days for behavioral changes (see Tables 2-6 and 8-11) and for their responses to substances with analgesic properties (see Tables 7 and 12).
(§3) The stimuli used to elicit pain behavior were the von Frey fibers, camel hair brush and pinprick, with 6 stimulations of each stimulus. Each variant pain model had the same sequence of stimuli with the positive responses averaged and a student T-test performed for the significance of the post procedural responses as compared to the baseline control data (see Tables 2-6 and 11); and for the post-analgesic responses as compared to the pre-analgesic behavioral data (see Tables 7 and 12).
The tunnels identified by the above studies were then used for the placement of the biocompatible gels by the chosen peripheral nerves. The gelatinous or viscous substances (i.e., the gels) placed by the peripheral nerves or nerve roots contained collagen (e.g., AVITENE® and gelatin) or hydrogels. […]

[2] = system: rat pain model variants; experiment: Analgesic effect in rat neurogenic pain model variants (overall statement); assay type: in vivo, Sprague Dawley rats
Description: as §1, §2, §3
(§4) The tunnels identified by the above studies were then used for the placement of the biocompatible gels by the chosen peripheral nerves. The gelatinous or viscous substances (i.e., the gels) placed by the peripheral nerves or nerve roots contained collagen (e.g., AVITENE® and gelatin) or hydrogels. The “collagen gel” used in the present study was composed of 0.8 grams of collagen as AVITENE® (microfibrillar collagen hemostat flour, Davol Inc., Cranston, R.I. 02920) and 0.7 grams of collagen as gelatin (Knox gelatin, Kraft Foods, Northfield, Ill. 60093) mixed with 14 cc of normal saline until homogenous. Then the collagen mixture was placed in a PYREX® bowl resting in a paper bowl and covered with a ceramic saucer, then heated for 20 seconds at full power in a microwave. The resulting viscous mixture was kept fluid in a warm water bath at 100-110° F., until used for the placement procedure. The wound hydrogels used in the present study were two types: one contains alginate (SAF-Gel® from ConvaTec of E. R. Squibb & Sons, Princeton, N.J.) and the other contains acemannan from Aloe vera L. (Carrasyn®V from Carrington Laboratories, Irving, Tex.). […] Such hydrogels are used in the care of open dermal wounds as well as in first and second degree burns since they provide a closed moist environment for wound healing.
(§5) The rats were anesthesized with 1.5% to 2% isoflurane for the percutaneous kinesthetic placement of the above “gels” by the specified nerves. Using an angled 23 gauge thin wall 1″ needle, approximately 0.1 cc-0.2 cc of gel was placed percutaneously with kinesthetic technique in the anatomically defined fascial tunnels of the chosen peripheral nerves as described below.
(§6) The doses were given intraperitoneally (I.P.) and behavioral stimulus testing began 40-80 minutes after the dose. The student's t-test (p<0.05) was performed for determining the significance of changes in behaviors associated with pain after the analgesic was administered.

[3] = system: rat pain model variants; experiment: Mechanical hyperalgesia (pinprick) in rat pain model variants; assay type: in vivo, Sprague Dawley rats; conditions: for Pinprick # STIMULATIONS POST-ANALGESIC / Pinprick # ST[…]-ANALGESIC: of 6; for Post Avg, Average Positive stimulations out of 6 total, Stim PP Pin Prick: n=12 rats
Description: as §1, §2, §3, §4, §5, §6

[4] = system: rat pain model variants; assay type: in vivo, Sprague Dawley rats; conditions: for von Frey F 4.93 # ST[…]-ANALGESIC: of 6
Description: Male Sprague Dawley rats initially weighing between 150 and 175 grams were housed singly. […] The pain behaviors studied were static mechanical allodynia (e.g., light touch stimulation with von Frey fibers 4.56, 4.73, 4.93, and/or 5.07), dynamic mechanical allodynia (e.g., stimulation with moving camel hair brush), and/or mechanical hyperalgesia (e.g., pinprick stimulation).
as §2
The stimuli used to elicit pain behavior were the von Frey fibers, camel hair brush and pinprick, with 6 stimulations of each stimulus.
as §4, §5, §6

[5] = system: Mice with Neural Compression; experiment: von Frey fiber and camel hair brush testing for mechanical allodynia in mice with collagen placed by the posterior tibial nerve; assay type: in vivo; conditions: for Average # Paw Withdrawals: of 10 stimulations, n=10 mice
Description: Biocompatible collagen was prepared for use in the present study. The collagen source was dry gelatin that was prepared using sterile techniques. The dry collagen was measured to 2.5 grams and mixed with 7.5 cc of sterile normal saline. The mixture was heated for 30 seconds in a microwave on 80% power, The mixture was kept soft in warm water (approximately 100 to 110 degrees).
The consistency of the resulting warm collagen was such that it was able to pass through a 23 gauge needle. Humidity and other factors such as temperature can affect the consistency of the substance. 1-cc syringes were used for injection of 0.2 to 0.25 cc of collagen. For the injection, 23 gauge 1″ standard luer lock hypodermic needles were used. The needles were very slightly dulled with a metal file at the tip and edges using sterile technique. The needles were angled at the midpoint with a bevel tip up. The angle was between 30 and 45 degrees, but any angle that allows for easy placement of the injected substance could be used. The needles were then attached to the collagen-filled one cc syringes. The syringes were kept in a warm water bath (100 to 110° F.) to maintain proper gel consistency.
The mice were lightly anesthetized with 1.5 to 2% isoflurane. The mice were then stabilized and aligned such that the left posterior leg was in view. The external anatomic landmarks of the posterior popliteal area were identified. The internal anatomy of this area including the posterior tibial nerve with its artery was mentally visualized with kinesthetic techniques. Kinesthetic techniques are methods that use the kinesthetic sense or the integration of the senses by which movement, mass, turgor, shape, resistance, elasticity, temperature, spatial relationships and position are commonly perceived. It also refers to the integrated use of multiple senses such as touch, proprioception, vision, and hearing. After location of the site for placement of the gel, the needle and syringe were then removed from the warm water bath. The distal portion of the needle was held loosely parallel to the tibia. The needle was allowed to gently penetrate through the dermis by pulling the skin taut over the popliteal fossa. With careful avoidance of tissue resistance, the needle tip, bevel up, was gently slipped beneath the fascial edge of the soleus muscle by the tibial nerve and artery into the deep posterior fascial compartment of the posterior tibial neurovascular tunnel, which is the neurovascular tunnel for the posterior tibial nerve and its proximal branches. When the tip of the needle was at the mid soleus muscle belly, the collagen mixture was slowly injected into the posterior tibial tunnel. The needle was removed and the animals allowed to recover from the anesthetic. All animals were normally moving freely within 20 minutes of anesthesia withdrawal.
Two days after placement of the collagen gel around the nerve, von Frey testing was again performed. Von Frey testing continued for 49 days. […]

[6] = system: open surgical rat model for CRPS I; conditions: prior art surgical model, Reyna et al. 1999; cited from earlier work
[7] = Ethosuximide 100 mg/kg IP, 1 rat tibial n. with Acemann hydrogel, pre 6
[8] = Ethosuximide 100 mg/kg IP, 1 rat tibial n. with Alginate hydrogel, pre 6

## CCC1(C)CC(=O)NC1=O (stereo not shown) [Ethosuximide, ethosuximide]
[1]; Ethosuximide 200 mg/kg (IP), Pre Avg 4.17, p=1.1E-4
  Post Avg, Average Positive stimulations out of 6 total, Stim S Brush: 1.17
[2]; ethosuximide 200 mg/kg IP, Table 12, within 40-80 minutes
  analgesic effect (significance): significant analgesic effects
[3]; Ethosuximide 100 mg/kg IP, 1 rat saphenous n. with Avitene collagen, pre 6
  Pinprick # STIMULATIONS POST-ANALGESIC: 1
[3]; [7]
  Pinprick # STIMULATIONS POST-ANALGESIC: 0
[3]; [8]
  Pinprick # STIMULATIONS POST-ANALGESIC: 2
[3]; Ethosuximide 100 mg/kg IP, single rats sciatic n. with Alginate hydrogel (two rats, pre 6 and 6)
  Pinprick # STIMULATIONS POST-ANALGESIC: 0 and 1
[3]; Ethosuximide 100 mg/kg IP, total of 5 rats, pre total 30, pre vs post p=1.6E-4
  Pinprick # STIMULATIONS POST-ANALGESIC, Total: 4
[3]; Ethosuximide 200 mg/kg (IP), Pre Avg 5.25, p=1.4E-8
  Post Avg, Average Positive stimulations out of 6 total, Stim PP Pin Prick: 1.75
[4]; Ethosuximide 100 mg/kg IP, 1 rat saphenous n. with Avitene collagen, pre 4
  von Frey F 4.93 # ST[…]-ANALGESIC: 0
[4]; [7]
  von Frey F 4.93 # ST[…]-ANALGESIC: 0
[4]; [8]
  von Frey F 4.93 # ST[…]-ANALGESIC: 0
[4]; Ethosuximide 100 mg/kg IP, single rats sciatic n. with Alginate hydrogel (two rats, pre 3 and 6)
  von Frey F 4.93 # ST[…]-ANALGESIC: 0
[4]; Ethosuximide 100 mg/kg IP, total of 5 rats, pre total 25, pre vs post p=1.43E-3
  von Frey F 4.93 # ST[…]-ANALGESIC, Total: 0
[4]; Ethosuximide 200 mg/kg (IP), all rats of Tables 8-10, n=12, Pre Avg 1.83, p=2.9E-3
  Post Avg, Average Positive stimulations out of 6 total, Stim A vF 4.56: 0.5
[4]; Ethosuximide 200 mg/kg (IP), n=12 rats, Pre Avg 2.92, p=8.4E-5
  Post Avg, Average Positive stimulations out of 6 total, Stim B vF 4.93: 0.58
[4]; Ethosuximide 200 mg/kg (IP), n=12 rats, Pre Avg 3.92, p=1.4E-5
  Post Avg, Average Positive stimulations out of 6 total, Stim C vF 5.07: 0.83

## O=C(c1ccccc1)c1ccc2n1CCC2C(=O)O (stereo not shown) [Ketorolac, ketorolac]
[2]; ketorolac 10% 0.1 cc IP, Table 7
  analgesic effect (significance): no significant analgesic effect; also recorded: no significant analgesic properties
[3]; Ketorolac 10% 0.1 cc IP, 1 rat peroneal n. with Avitene collagen, pre 6
  Pinprick # STIMULATIONS POST-ANALGESIC: 6
[3]; Ketorolac 10% 0.1 cc IP, 1 rat tibial n. with Acemannan hydrogel, pre 6
  Pinprick # STIMULATIONS POST-ANALGESIC: 6
[3]; Ketorolac 10% 0.1 cc IP, 1 rat tibial n. with Alginate hydrogel, pre 6
  Pinprick # STIMULATIONS POST-ANALGESIC: 6
[3]; Ketorolac 10% 0.1 cc IP, single rats sciatic n. with Alginate hydrogel (two rats, pre 6 and 6)
  Pinprick # STIMULATIONS POST-ANALGESIC: 5 and 6
[3]; Ketorolac 10% 0.1 cc IP, total of 5 rats, pre total 30, pre vs post p=3.7E-1
  Pinprick # STIMULATIONS POST-ANALGESIC, Total: 29

## NCC1(CC(=O)O)CCCCC1 [gabapentin]
[1]; Gabapentin 50 mg/kg (IP), Pre Avg 3.25, p=9.5E-4
  Post Avg, Average Positive stimulations out of 6 total, Stim S Brush: 1.25
[2]; gabapentin 50 mg/kg IP, Table 12, within 40-80 minutes
  analgesic effect (significance): significant analgesic effects
[2]; gabapentin 50 mg/kg IP, Table 12, within 40-80 minutes, listed as Gabapentin
  analgesic effect (significance): significant analgesic effect
[5]; gabapentin 25 mg/kg IP, post procedure day 58 (9.14 before dose)
  Average # Paw Withdrawals: 6.86
[5]; gabapentin 40 mg/kg IP, post procedure day 65 (9.19 before dose)
  Average # Paw Withdrawals: 5.81
[5]; gabapentin 25 or 40 mg/kg IP
  Analgesic response (mechanical allodynia): Analgesic responses were shown
[3]; Gabapentin 50 mg/kg (IP), Pre Avg 5.08, p=2.6E-5
  Post Avg, Average Positive stimulations out of 6 total, Stim PP Pin Prick: 2.25
[6]
  analgesic response: exhibited an analgesic response
[4]; Gabapentin 50 mg/kg (IP), n=12 rats, Pre Avg 2.0, p=8.5E-5
  Post Avg, Average Positive stimulations out of 6 total, Stim A vF 4.56: 0.25
[4]; Gabapentin 50 mg/kg (IP), n=12 rats, Pre Avg 2.42, p=4.4E-4
  Post Avg, Average Positive stimulations out of 6 total, Stim C vF 5.07: 0.75
[4]; Gabapentin 50 mg/kg (IP), n=12 rats, Pre Avg 2.58, p=5.8E-5
  Post Avg, Average Positive stimulations out of 6 total, Stim B vF 4.93: 0.5

## CN1CC[C@]23c4c5ccc(O)c4O[C@H]2[C@@H](O)C=C[C@H]3[C@H]1C5.O=S(=O)(O)O [morphine, morphine sulfate]
[1]; Morphine Sulfate 5 mg/kg (IP), Pre Avg 4.75, p=1.5E-6
  Post Avg, Average Positive stimulations out of 6 total, Stim S Brush: 1.69
[2]; morphine 5 mg/kg IP, Tables 7 and 12, within 40-80 minutes, listed as Morphine, sulfate
  analgesic effect (significance): significant analgesic effect
[2]; morphine 5 mg/kg IP, Tables 7 and 12, within 40-80 minutes, listed as morphine Sulfate, sulfate
  analgesic effect (significance): significant analgesic effects
[5]; morphine 1 mg/kg IP, post procedure day 49 (8.71 before dose)
  Average # Paw Withdrawals: 8.71
[5]; morphine 5 mg/kg IP, post procedure day 51 (8.88 before dose)
  Average # Paw Withdrawals: 6.66
[5]; morphine at least 5 mg/kg IP
  Analgesic response (mechanical allodynia): Analgesic responses were shown
[3]; Morphine 5 mg/kg IP, 1 rat peroneal n. with Avitene collagen, pre 6
  Pinprick # ST[…]-ANALGESIC: 1
[3]; Morphine 5 mg/kg IP, 1 rat tibial n. with Acemannan hydrogel, pre 6
  Pinprick # ST[…]-ANALGESIC: 2
[3]; Morphine 5 mg/kg IP, 1 rat tibial n. with Alginate hydrogel, pre 6
  Pinprick # ST[…]-ANALGESIC: 3
[3]; Morphine 5 mg/kg IP, single rats sciatic n. with Alginate hydrogel (two rats, pre 6 and 6), sulfate
  Pinprick # ST[…]-ANALGESIC: 2 and 4
[3]; Morphine 5 mg/kg IP, total of 5 rats, pre total 30, pre vs post p=2.1E-3
  Pinprick # ST[…]-ANALGESIC, Total: 12
[3]; Morphine Sulfate 5 mg/kg (IP), Pre Avg 5.67, p=2.0E-10
  Post Avg, Average Positive stimulations out of 6 total, Stim PP Pin Prick: 2.17
[6]
  analgesic response: exhibited an analgesic response
[4]; Morphine Sulfate 5 mg/kg (IP), n=12 rats, Pre Avg 2.83, p=1.6E-4
  Post Avg, Average Positive stimulations out of 6 total, Stim A vF 4.56: 0.33
[4]; Morphine Sulfate 5 mg/kg (IP), n=12 rats, Pre Avg 3.33, p=1.3E-6
  Post Avg, Average Positive stimulations out of 6 total, Stim B vF 4.93: 0.58
[4]; Morphine Sulfate 5 mg/kg (IP), n=12 rats, Pre Avg 3.33, p=6.1E-6
  Post Avg, Average Positive stimulations out of 6 total, Stim C vF 5.07: 0.83
